Assay results published in PubChem BioAssay AID2060907 (Molecular Pharmacology Branch, DTP, NCI, 2025).

System: 388556-164-R-J1-PDC complex spheroid viability
Assay: Anticancer human tumor 388556-164-R-J1-PDC patient-derived colon adenocarcinoma cell line growth inhibition [RAS]
Conditions: for IC50: curve of first compound; for viability, T/C: stronger effect = lower value
Method in brief: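 Tumour cells grown as complex spheroids with HUVEC endothelial cells and mesenchymal stem cells, treated with RAS pathway inhibitor combinations. Each agent spans half-log steps from near clinical Cmax, or 10 microM where Cmax is unknown.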
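Note: spheroids exposed to compound for 7 days before readout.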
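Throughout, for viability, T/C: 100% = DMSO vehicle control luminescence.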

Molecule CCc1c2c(nc3ccc(O)cc13)-c1cc3c(c(=O)n1C2)COC(=O)[C@]3(O)CC + C#Cc1c(F)ccc2cc(O)cc(-c3ncc4c(N5CC6CCC(C5)N6)nc(OCC56CCCN5CC(F)C6)nc4c3F)c12 has an IC50 (second compound 0.0316 µM) of 94.1 nM, an IC50 (second compound 0.1 µM) of 104 nM and an IC50 (second compound 0.316 µM) of 97.8 nM. The IC50 (second compound 1 µM) was 78.1 nM, the IC50 (second compound 3.16 µM) was 85.6 nM and the IC50 (second compound 10 µM) was 42.8 nM. The viability, T/C (second compound 0.0316 µM, first compound 0.000949 µM) was 94.4%, the viability, T/C (second compound 0.0316 µM, first compound 0.003 µM) was 96.1% and the viability, T/C (second compound 0.0316 µM, first compound 0.00949 µM) was 83.6%. The viability, T/C (second compound 0.0316 µM, first compound 0.03 µM) was 69%, the viability, T/C (second compound 0.0316 µM, first compound 0.0949 µM) was 50.4% and the viability, T/C (second compound 0.0316 µM, first compound 0.3 µM) was 36.2%. The viability, T/C (second compound 0.1 µM, first compound 0.000949 µM) was 108%, the viability, T/C (second compound 0.1 µM, first compound 0.003 µM) was 82.4% and the viability, T/C (second compound 0.1 µM, first compound 0.00949 µM) was 84.4%. It also gave a viability, T/C (second compound 0.1 µM, first compound 0.03 µM) of 70.3%, a viability, T/C (second compound 0.1 µM, first compound 0.0949 µM) of 52.6% and a viability, T/C (second compound 0.1 µM, first compound 0.3 µM) of 31.6%. For the same molecule, the viability, T/C (second compound 0.316 µM, first compound 0.000949 µM) was 93.6%, the viability, T/C (second compound 0.316 µM, first compound 0.003 µM) was 94.8% and the viability, T/C (second compound 0.316 µM, first compound 0.00949 µM) was 71.4%. For the same molecule, the viability, T/C (second compound 0.316 µM, first compound 0.03 µM) was 67.2%, the viability, T/C (second compound 0.316 µM, first compound 0.0949 µM) was 55.8% and the viability, T/C (second compound 0.316 µM, first compound 0.3 µM) was 25.5%. For the same molecule, the viability, T/C (second compound 1 µM, first compound 0.000949 µM) was 92.1%, the viability, T/C (second compound 1 µM, first compound 0.003 µM) was 89% and the viability, T/C (second compound 1 µM, first compound 0.00949 µM) was 60.5%. For the same molecule, the viability, T/C (second compound 1 µM, first compound 0.03 µM) was 71.4%, the viability, T/C (second compound 1 µM, first compound 0.0949 µM) was 50.5% and the viability, T/C (second compound 1 µM, first compound 0.3 µM) was 23.3%. For the same molecule, the viability, T/C (second compound 3.16 µM, first compound 0.000949 µM) was 80.2%, the viability, T/C (second compound 3.16 µM, first compound 0.003 µM) was 72.8% and the viability, T/C (second compound 3.16 µM, first compound 0.00949 µM) was 66.2%. The viability, T/C (second compound 3.16 µM, first compound 0.03 µM) was 60.1%, the viability, T/C (second compound 3.16 µM, first compound 0.0949 µM) was 53.8% and the viability, T/C (second compound 3.16 µM, first compound 0.3 µM) was 20.8%. For the same molecule, the viability, T/C (second compound 10 µM, first compound 0.000949 µM) was 72.4%, the viability, T/C (second compound 10 µM, first compound 0.003 µM) was 61.4% and the viability, T/C (second compound 10 µM, first compound 0.00949 µM) was 63%. It also gave a viability, T/C (second compound 10 µM, first compound 0.03 µM) of 55.1%, a viability, T/C (second compound 10 µM, first compound 0.0949 µM) of 41.1% and a viability, T/C (second compound 10 µM, first compound 0.3 µM) of 20.6%.

With C=CC(=O)Nc1cc(Nc2nccc(-c3cn(C)c4ccccc34)n2)c(OC)cc1N(C)CCN(C)C + C=CC(=O)N1CCN(c2nc(OCC3CCCN3C)nc3c(F)c(-c4nc(N)cc(C)c4C(F)(F)F)c(Cl)cc23)C(C)C1 the IC50 (second compound 0.00316 µM) was greater than 1000 nM, the IC50 (second compound 0.01 µM) was greater than 1000 nM and the IC50 (second compound 0.0316 µM) was greater than 1000 nM. The IC50 (second compound 0.1 µM) was greater than 1000 nM, the IC50 (second compound 0.316 µM) was greater than 1000 nM and the IC50 (second compound 1 µM) was greater than 1000 nM. The viability, T/C (second compound 0.00316 µM, first compound 0.00316 µM) was 110%, the viability, T/C (second compound 0.00316 µM, first compound 0.01 µM) was 99.2% and the viability, T/C (second compound 0.00316 µM, first compound 0.0316 µM) was 92.6%. For the same molecule, the viability, T/C (second compound 0.00316 µM, first compound 0.1 µM) was 80.3%, the viability, T/C (second compound 0.00316 µM, first compound 0.316 µM) was 68.6% and the viability, T/C (second compound 0.00316 µM, first compound 1 µM) was 52.8%. It also gave a viability, T/C (second compound 0.01 µM, first compound 0.00316 µM) of 104%, a viability, T/C (second compound 0.01 µM, first compound 0.01 µM) of 103% and a viability, T/C (second compound 0.01 µM, first compound 0.0316 µM) of 101%. The viability, T/C (second compound 0.01 µM, first compound 0.1 µM) was 90.1%, the viability, T/C (second compound 0.01 µM, first compound 0.316 µM) was 68.4% and the viability, T/C (second compound 0.01 µM, first compound 1 µM) was 58%. For the same molecule, the viability, T/C (second compound 0.0316 µM, first compound 0.00316 µM) was 102%, the viability, T/C (second compound 0.0316 µM, first compound 0.01 µM) was 99% and the viability, T/C (second compound 0.0316 µM, first compound 0.0316 µM) was 94%. It also gave a viability, T/C (second compound 0.0316 µM, first compound 0.1 µM) of 87.3%, a viability, T/C (second compound 0.0316 µM, first compound 0.316 µM) of 70.3% and a viability, T/C (second compound 0.0316 µM, first compound 1 µM) of 61.2%. The viability, T/C (second compound 0.1 µM, first compound 0.00316 µM) was 100%, the viability, T/C (second compound 0.1 µM, first compound 0.01 µM) was 99.4% and the viability, T/C (second compound 0.1 µM, first compound 0.0316 µM) was 91.1%. For the same molecule, the viability, T/C (second compound 0.1 µM, first compound 0.1 µM) was 90.6%, the viability, T/C (second compound 0.1 µM, first compound 0.316 µM) was 72.9% and the viability, T/C (second compound 0.1 µM, first compound 1 µM) was 54.6%. It also gave a viability, T/C (second compound 0.316 µM, first compound 0.00316 µM) of 99.2%, a viability, T/C (second compound 0.316 µM, first compound 0.01 µM) of 110% and a viability, T/C (second compound 0.316 µM, first compound 0.0316 µM) of 103%. For the same molecule, the viability, T/C (second compound 0.316 µM, first compound 0.1 µM) was 94.5%, the viability, T/C (second compound 0.316 µM, first compound 0.316 µM) was 76.1% and the viability, T/C (second compound 0.316 µM, first compound 1 µM) was 58.8%. The viability, T/C (second compound 1 µM, first compound 0.00316 µM) was 90.6%, the viability, T/C (second compound 1 µM, first compound 0.01 µM) was 100% and the viability, T/C (second compound 1 µM, first compound 0.0316 µM) was 93.5%. For the same molecule, the viability, T/C (second compound 1 µM, first compound 0.1 µM) was 96.4%, the viability, T/C (second compound 1 µM, first compound 0.316 µM) was 73.3% and the viability, T/C (second compound 1 µM, first compound 1 µM) was 54.9%.
